“Also recorded” adds a separate entry of the source. Where a SMILES comes first, the peptide text is derived from it. Bridges are numbered along the chain shown (N, C = ends). Roman numbers before positions name the chains, in order.
Experiments:
[1] = tested on: Human mesenchymal stem cells (MSCs); experiment: In vitro cytotoxicity assay (CellTiter-Glo ATP viability) on MSCs; format: cell-based; conditions: for positive effect on viability of dipeptide combined with Cu(II): 24 h, selected combinations of dipeptide and Cu(II)
Procedure: (§1) Human mesenchymal stem cells (MSCs) were cultivated in MesenCult™-ACF Plus Culture Kit (Stemcell Technologies). The medium was prepared according to the manufacturer's instructions with addition of […] gentamicin and 2 mM I-glutamine. Agarabi CHO cells were cultivated in ActiPro medium supplemented with 6 mM I-glutamine. “Complete growth medium” references the medium with added supplements used for the cultivation of the corresponding cell type.
(§2) Stock solutions of Cu(II), I-cysteine, N, N′-di-I-alanyl-I-cysteine ((Ala-Cys)2) and N, N′-di-I-lysyl-I-cysteine ((Lys-Cys)2) were brought into solution in the corresponding complete growth medium immediately prior to their use. For the assay performed with combinations of Cu(II) and I-cysteine, (Ala-Cys)2 or (Lys-Cys)2 on MSCs, the dissolved single compounds were mixed together at 2× treatment concentration. On MSCs, I-cysteine and the dipeptides were tested at 0.5 mM, 1 mM and 5 mM; Cu(II) was tested at 0.2 μM, 1 μM and 5 μM. For the treatment of Agarabi CHO cells, serial dilutions of I-cysteine, (Ala-Cys)2 and (Lys-Cys)2 stock solutions in complete growth medium were performed with 2× treatment concentration at each dilution step. On Agarabi CHO cells, I-cysteine and the dipeptides were tested at 2.5 mM, 5 mM and 10 mM; Cu(II) was tested at 2.5 μM, 10 μM and 40 μM.
(§3) The cytotoxicity of the test compounds and their combinations was assayed on MSCs and Agarabi CHO cells cultivated in white 96-well cell culture plates at 5.000 cells/well. MSCs (50 μL/well) were cultivated for 24 h in a CO2-incubator (37° C., 5% CO2, 95% humidity) to ensure cell adhesion. This was followed by the addition of the prepared 2× concentrated test compounds and mixtures (50 μL/well). […]
(§4) After incubation, the viability of the treated cells was determined based on adenosine triphosphate (ATP) quantification using the CellTiter-Glo® Luminescent Cell Viability Assay (Promega) according to the manufacturer's instructions.
(§5) To calculate the cell viability, resulting luminescence values were averaged and normalized to the signal emitted by the untreated cells.

Agarabi CHO cells = experiment: In vitro cytotoxicity assay (CellTiter-Glo ATP viability) on Agarabi CHO cells; format: cell-based; conditions: for positive effect on viability of dipeptide combined with Cu(II): Agarabi CHO cells, 96 h, selected combinations of dipeptide and Cu(II)
Procedure: as §1, §2, §3, §4, §5

## NCCCC[C@H](N)C(=O)N[C@@H](CSSC[C@H](NC(=O)[C@@H](N)CCCCN)C(=O)O)C(=O)O [(Lys-Cys)2, N,N′-di-L-lysyl-L-cystine] (I: H-Lys-Cys-OH / II: H-Lys-Cys-OH; disulfide I:2-II:2)
[1]
  positive effect on viability of dipeptide combined with Cu(II): pronounced positive effect on viability; also recorded: viability was even increased
Agarabi CHO cells
  positive effect on viability of dipeptide combined with Cu(II): pronounced positive effect on viability; also recorded: viability was even increased

## O.O.O.O.O.O=S(=O)([O-])[O-].[Cu+2] [Cu(II), Copper (II) sulfate pentahydrate, reference compound]
[1]; single component controls, L-cysteine and dipeptides up to 5 mM, Cu(II) up to 5 μM
  effect of single component on cell viability: did not have a negative effect on viability
Agarabi CHO cells; CHO cells, single component control, Cu(II) up to 40 μM
  effect of single component on cell viability: did not have a negative effect on viability

## C[C@H](N)C(=O)N[C@@H](CSSC[C@H](NC(=O)[C@H](C)N)C(=O)O)C(=O)O [(Ala-Cys)2, N,N′-di-L-alanyl-L-cystine] (I: H-Ala-Cys-OH / II: H-Ala-Cys-OH; disulfide I:2-II:2)
[1]
  positive effect on viability of dipeptide combined with Cu(II): pronounced positive effect on viability; also recorded: viability was even increased
Agarabi CHO cells
  positive effect on viability of dipeptide combined with Cu(II): pronounced positive effect on viability; also recorded: viability was even increased

From patent publication US20240279615A1, “COMPOSITIONS COMPRISING DIPEPTIDES AND TRACE ELEMENTS” (Evonik Operations GmbH, priority 2021, published 2024)
